Consider 25 compounds from ChEMBL document CHEMBL5260832, “Hepatoprotective natural triterpenoids” (Eur J Med Chem, 2018).

One assay concerns Hepatocyte. In words: Hepatoprotective activity against D-GaIN/TNFalpha-induced cell death in mouse hepatocyte at 100 uM relative to control. The assay is classed as functional, cell-based. To be noted: Mus musculus, Hepatocyte.
The subject of a further assay is L02. As to the kind of experiment: Hepatoprotective activity against D-GaIN-induced cell damage in human HL7702 cells assessed as increase in cell survival at 10 uM relative to control. The assay is classed as functional.
Assay [1] is filed under the species Mus musculus. In words: Hepatoprotective activity in CCl4-induced toxicity in liver injured mouse assessed as increase in inhibition of liver damage relative to control. In kind it is functional. More on the design: concentration or dose not given beside the values.
The subject of assay [2] is Mus musculus. In words: Hepatoprotective activity against D-GaIN/CCl4 induced liver injury mouse model assessed as reduction in GPT level at 30 microg/kg, iv relative to control. The following applies: dose 30 µg/kg. Also on record: scale not given: the % may be the effect or the level left. In kind it is functional.
A short description of assay [3]: Antiproliferative activity against rat HSC-T6 cells assessed as reduction in cell viability incubated for 48 hrs by MTT assay. In kind it is functional, cell-based. The following applies: HSC-T6, 48 h.

Structures are written as SMILES.

The term IC50 denotes the concentration that inhibits the measured activity by half.

For the compound `CC1=C2C3=CC[C@@H]4[C@@]5(C)C[C@@H](O)[C@H](O)[C@@](C)(CO)[C@@H]5CC[C@@]4(C)[C@]3(C)CC[C@@]2(C(=O)O)CC[C@H]1C`, in the assay with Hepatocyte, it took 51 µM to reach half-maximal inhibition (IC50).
Consider `C/C(CC(=O)CC(C)C(=O)O)=C1/CC(=O)[C@@]2(C)C3=C(C(=O)C[C@]12C)[C@@]1(C)CC[C@H](O)C(C)(C)[C@@H]1CC3=O` (stereo not given in full), for which, in the assay on L02, the Activity came to 55%.
Turning to `COC(=O)[C@]12CC[C@@H](C)[C@H](C)[C@H]1C1=CC[C@@H]3[C@@]4(C)C[C@@H](OC(C)=O)[C@H](O)[C@@](C)(COC(C)=O)[C@@H]4CC[C@@]3(C)[C@]1(C)CC2`, the Activity in the assay listed under Mus musculus [1] worked out at 54.2%.
Consider `CC(C)=CCC[C@@](C)(O)[C@H]1CC[C@]2(C)[C@@H]1[C@H](O)C[C@@H]1[C@@]3(C)CC[C@H](O[C@@H]4O[C@H](CO)[C@@H](O)[C@H](O)[C@H]4O[C@@H]4O[C@H](CO)[C@@H](O)[C@H](O)[C@H]4O)C(C)(C)[C@@H]3CC[C@]12C`, for which, in the assay with Mus musculus [2], the Activity is 34%.
With `C[C@@H]1O[C@@H](O[C@H]2[C@H](OC(=O)[C@]34CCC(C)(C)C[C@H]3C3=CC[C@@H]5[C@@]6(C)C[C@H](O)[C@H](O[C@@H]7O[C@H](CO)[C@@H](O)[C@H](O)[C@H]7O)C(CO)(CO)[C@@H]6CC[C@@]5(C)[C@]3(C)C[C@H]4O)OC[C@H](O)[C@@H]2O)[C@H](O)[C@H](O)[C@H]1O[C@@H]1OC[C@@H](O)[C@H](O[C@@H]2OC[C@](O)(CO)[C@H]2O)[C@H]1O` [PLATYCODIN D], the IC50 in assay [3] was found to be 1.77 µM.
Regarding `CC(=O)OC[C@@]1(C)[C@@H]2CC[C@]3(C)[C@H](C(=O)C=C4[C@@H]5[C@@H](C)[C@H](C)CC[C@]5(C(=O)O)CC[C@]43C)[C@@]2(C)CC(=O)[C@@H]1OC(C)=O`, in the assay filed under Mus musculus [1], the Activity turned out to be 22%.
Regarding `CC(C)=CCC[C@@](C)(O)[C@H]1CC[C@]2(C)[C@@H]1[C@H](O)C[C@@H]1[C@@]3(C)CC[C@H](O)C(C)(C)[C@@H]3[C@@H](O[C@@H]3O[C@H](CO)[C@@H](O)[C@H](O)[C@H]3O[C@@H]3O[C@@H](C)[C@H](O)[C@@H](O)[C@H]3O)C[C@]12C`, the Activity in the assay on Mus musculus [2] was found to be 50%.
For `CC(C)=CCC[C@](C)(O)[C@H]1CC[C@]2(C)[C@@H]1[C@H](O)C[C@@H]1[C@@]3(C)CC[C@H](O)C(C)(C)[C@@H]3[C@@H](O[C@@H]3O[C@H](CO)[C@@H](O)[C@H](O)[C@H]3O[C@@H]3O[C@H](CO)[C@@H](O)[C@H](O)[C@H]3O)C[C@]12C` [GINSENOSIDE RF], the Activity in the assay with Mus musculus [2] is given as 77%.
For `C[C@H]1[C@H](C)CC[C@]2(C(=O)O)CC[C@]3(C)C(=CC(=O)[C@@H]4[C@@]5(C)C[C@@H](O)[C@H](O)[C@@](C)(CO)[C@@H]5CC[C@]43C)[C@H]12`, the Activity in the assay listed under Mus musculus [1] is listed as 25.6%.
With `CC(=O)[C@H]1CC(=O)[C@@]2(C)C3=C(C(=O)C[C@]12C)[C@@]1(C)CCC(=O)C(C)(C)[C@@H]1C[C@@H]3O`, the Activity in the assay on L02 is 58%.
For `C[C@@H]1O[C@@H](O[C@H]2[C@H](OC(=O)[C@]34CCC(C)(C)C[C@H]3C3=CC[C@@H]5[C@@]6(C)C[C@H](O)[C@H](O[C@@H]7O[C@H](CO)[C@@H](O)[C@H](O)[C@H]7O)C(CO)(CO)[C@@H]6CC[C@@]5(C)[C@]3(C)C[C@H]4O)OC[C@H](O)[C@@H]2O)[C@H](O)[C@H](O)[C@H]1O[C@@H]1OC[C@@H](O)[C@H](O)[C@H]1O`, the IC50 in assay [3] is 8.24 µM.
For the compound `CC(C)=CCC[C@](C)(O[C@@H]1O[C@H](CO)[C@@H](O)[C@H](O)[C@H]1O)[C@H]1CC[C@]2(C)[C@@H]1[C@H](O)C[C@@H]1[C@@]3(C)CC[C@H](O)C(C)(C)[C@@H]3CC[C@]12C`, the Activity with Mus musculus [2] is on record as 76%.
Regarding `CC(CC(=O)C[C@@H](C)[C@H]1C[C@H](O)[C@@]2(C)C3=C(C(=O)C[C@]12C)[C@@]1(C)CC[C@H](O)C(C)(C)[C@@H]1C[C@@H]3O)C(=O)O` (stereo not given in full), the Activity in the assay on L02 was 76%.
With `C[C@@H]1O[C@@H](O[C@H]2[C@H](OC(=O)[C@]34CCC(C)(C)C[C@H]3C3=CC[C@@H]5[C@@]6(C)C[C@H](O)[C@H](O[C@@H]7O[C@H](CO)[C@@H](O)[C@H](O)[C@H]7O)[C@](C)(CO)[C@@H]6CC[C@@]5(C)[C@]3(C)C[C@H]4O)OC[C@H](O)[C@@H]2O)[C@H](O)[C@H](O)[C@H]1O[C@@H]1OC[C@@H](O)[C@H](O[C@@H]2OC[C@](O)(CO)[C@H]2O)[C@H]1O`, the IC50 in assay [3] is 1.04 µM.
With `CC(C)=CCC[C@](C)(O)[C@H]1CC[C@]2(C)[C@@H]1[C@H](O)C[C@@H]1[C@@]3(C)CC[C@H](O[C@@H]4O[C@H](CO)[C@@H](O)[C@H](O)[C@H]4O[C@@H]4O[C@H](CO)[C@@H](O)[C@H](O)[C@H]4O)C(C)(C)[C@@H]3CC[C@]12C`, in the assay on Mus musculus [2], the Activity came to 63%.
On to `CC1(C)CC[C@]2(N)C(=O)C[C@]3(C)C(=CC[C@@H]4[C@@]5(C)C[C@H](O)[C@H](O[C@@H]6O[C@H](CO)[C@@H](O)[C@H](O)[C@H]6O)C(CO)(CO)[C@@H]5CC[C@]43C)[C@@H]2C1`, for which the IC50 in assay [3] worked out at 69.6 µM.
Consider `C/C(=C\CCC(C)(O)[C@H]1C[C@H](O)[C@@]2(C)C3=C(C(=O)C[C@]12C)[C@@]1(C)CC[C@H](O)C(C)(C)[C@@H]1C[C@@H]3O)C(=O)O` (stereo not given in full), for which, in the assay with L02, the Activity is 43%.
Turning to `C[C@H]1[C@H](C)CC[C@]2(CO)CC[C@]3(C)C(=CC[C@@H]4[C@@]5(C)C[C@@H](O)[C@H](O)[C@@](C)(CO)[C@@H]5CC[C@]43C)[C@H]12`, the Activity in the assay listed under Mus musculus [1] is on record as 39.7%.
In the case of `CC1(C)CC[C@]2(N)C(=O)C[C@]3(C)C(=CC[C@@H]4[C@@]5(C)C[C@H](O)[C@H](O)C(CO)(CO)[C@@H]5CC[C@]43C)[C@@H]2C1`, the IC50 in assay [3] was 5.27 µM.
On to `CC(C)=CCC[C@@](C)(O)[C@H]1CC[C@]2(C)[C@@H]1[C@H](O)C[C@@H]1[C@@]3(C)CC[C@H](O)C(C)(C)[C@@H]3[C@@H](O[C@@H]3O[C@H](CO)[C@@H](O)[C@H](O)[C@H]3O[C@@H]3O[C@H](CO)[C@@H](O)[C@H](O)[C@H]3O)C[C@]12C`, for which the Activity in the assay with Mus musculus [2] came to 73%.
For `COC(=O)[C@]12CC[C@@H](C)[C@H](C)[C@H]1C1=CC[C@@H]3[C@@]4(C)CC(=O)[C@H](O)[C@@](C)(COC(C)=O)[C@@H]4CC[C@@]3(C)[C@]1(C)CC2`, the Activity in the assay listed under Mus musculus [1] worked out at 46.4%.
On the same count and under the same terms, the result for `CC(=O)OC[C@@]1(C)[C@@H]2CC[C@]3(C)[C@H](C(=O)C=C4[C@@H]5[C@@H](C)[C@H](C)CC[C@]5(C(=O)O)CC[C@]43C)[C@@]2(C)CC(=O)[C@@H]1O` reads 35.9%.
Turning to `C/C(=C/C(=O)CC(C)C(=O)O)[C@H]1CC(=O)[C@@]2(C)C3=C(C(=O)C[C@]12C)[C@@]1(C)CC[C@H](O)C(C)(C)[C@@H]1C[C@@H]3O` (stereo not given in full), the Activity with L02 was found to be 65%.
`CC1(C)CC[C@]2(C(=O)O)[C@H](O)C[C@]3(C)C(=CC[C@@H]4[C@@]5(C)C[C@H](O)[C@H](O[C@@H]6O[C@H](CO)[C@@H](O)[C@H](O)[C@H]6O)C(CO)(CO)[C@@H]5CC[C@]43C)[C@@H]2C1`: the IC50 in assay [3] came out at 13.4 µM.
Turning to `CC(CC(=O)C[C@@H](C)C1=CC(=O)[C@@]2(C)[C@@H]3C(=O)C[C@H]4C(C)(C)[C@@H](O)CC[C@]4(C)[C@H]3C(=O)C[C@]12C)C(=O)O` (stereo not given in full), the Activity with L02 was 75%.
